Results taken from the OPERA property sets (Mansouri et al. 2018).

SMILES	logP
CC(C)(C)S(=O)(=O)CC(Cc1cccc2ccccc12)C(=O)NC(Cc1cnc[nH]1)C(=O)NC(CC1CCCCC1)C(O)C(O)C1CC1 (stereo not given)	3.15
Cc1cnc(NC(=O)C2=C(O)c3ccccc3S(=O)(=O)N2C)s1	3.43
O=C1O[C@H]([C@@H](O)CO)C(O)=C1O	-1.85
N[C@@H](Cc1ccccc1)C(=O)O (racemic)	-1.38
CCCCCCCCCNCc1ccc(C)cc1	5.7
CCCCNc1ccc(C(=O)OCCN(C)C)cc1	3.51
CC(C)(C)S(=O)(=O)CC(Cc1ccccc1)C(=O)NC(Cc1cnc[nH]1)C(=O)NC(CC1CCCCC1)C(O)C(O)C1CC1 (stereo not given)	2.75
COS(=O)c1ccc(O)cc1 (stereo not given)	0.58
CCCc1c2c(c(O)c3c(=O)cc(C(=O)O)oc13)CCCC2	5
CCc1cc(CC(C#N)C#N)cc(CC)c1O	4.12
COc1ccc(Cc2nccc3cc(OC)c(OC)cc23)cc1OC	2.95
COc1ccccc1OCCNCC(O)COc1cccc2[nH]c3ccccc3c12 (stereo not given)	4.19
CN1C(C(=O)Nc2ccccn2)=C(O)c2ccccc2S1(=O)=O	3.06
N#CC(C#N)Cc1ccc(O)cc1	3.08
CCN(CC)CCOC(=O)c1ccc(N)cc1	2.14
